Calls of active or inactive are those of the source. No cut-off for these calls is given here.

Common to all, as to type: functional
The test system of experiment [1] is Radical scavenging activity. As to the kind of experiment: Antioxidant activity assessed as DPPH radical scavenging activity at 300 uM after 48 hrs by spectrophotometry. Background: The DPPH test is a chemical assay of radical scavenging.
The nature of experiment [2]: Antioxidant activity assessed as oxygen radical scavenging activity by ORAC assay.
The nature of experiment [3]: Antioxidant activity assessed as ABTS radical scavenging activity.

For `O=C1N[C@@H](Cc2ccc(O)cc2)C(=O)N2CCC[C@@H]12`, the Activity in experiment [1] came to 16%.
Same read-out and setting: the same measure for `O=C(CCCCO)OCCc1c[nH]c2ccccc12`: 47%; for `CC(O)C(=O)OCCc1c[nH]c2ccccc12` (stereo not drawn): 33%.
In the case of `OCCc1ccc(O)cc1`, the outcome in experiment [2] was Active. Further, the Activity in experiment [1] stood at 26%.
As for `Cc1cc(C(C)(C)C)c(O)c(C(C)(C)C)c1`, in experiment [1], the Activity is 86%.
With `OCCc1c[nH]c2ccccc12`, the result in experiment [3] was Active. In addition, in experiment [1], the Activity amounted to 52%.

For the origin of these results see ChEMBL document CHEMBL1154806, “Indole derivatives from a marine sponge-derived yeast as DPPH radical scavengers” (J Nat Prod, 2009).
